PubChem BioAssay AID330 (DTP/NCI, 2004)
“And” between values parts separate entries of the source, which are not always exact repeats. Identical values can stand only once. Toxic doses and inconclusive results are not listed. The calls were made as follows: active = survival T/C of 150% or more; inactive = T/C below 125% in these data.

System: P388 leukemia ip, CD2F1 mice, survival T/C
Assay: NCI In Vivo Anticancer Drug Screen. Data for tumor model P388 Leukemia (intraperitoneal) in CD2F1 (CDF1) mice
Conditions: endpoint: median survival time, higher = longer survival
How it was run: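 Mice carrying the transplanted tumor received test compound or vehicle. Survival was recorded in each group, and the value is the treated-group measurement divided by that of the vehicle-treated control group.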

[1] = dose: 100.0 mg/kg/injection, schedule: Q01DX009 (ip), vehicle: Klucel (hydroxypropylcellulose) (HPC)
[2] = dose: 6.25 mg/kg/injection, schedule: Q01DX005 (ip), vehicle: Klucel (hydroxypropylcellulose) (HPC)
[3] = dose: 12.5 mg/kg/injection, schedule: Q01DX005 (ip), vehicle: Klucel (hydroxypropylcellulose) (HPC)
[4] = dose: 25.0 mg/kg/injection, schedule: Q01DX005 (ip), vehicle: Klucel (hydroxypropylcellulose) (HPC)
[5] = dose: 50.0 mg/kg/injection, schedule: Q01DX005 (ip), vehicle: saline with Tween-80
[6] = dose: 100.0 mg/kg/injection, schedule: Q01DX005 (ip), vehicle: saline with Tween-80
[7] = dose: 200.0 mg/kg/injection, schedule: Q01DX005 (ip), vehicle: saline with Tween-80
[8] = dose: 50.0 mg/kg/injection, schedule: Q01DX009 (ip), vehicle: saline with Tween-80
[9] = dose: 100.0 mg/kg/injection, schedule: Q01DX009 (ip), vehicle: saline with Tween-80
[10] = dose: 200.0 mg/kg/injection, schedule: Q01DX009 (ip), vehicle: saline with Tween-80
[11] = dose: 60.0 mg/kg/injection, schedule: Q01DX005 (ip), vehicle: saline with Tween-80
[12] = dose: 120.0 mg/kg/injection, schedule: Q01DX005 (ip), vehicle: saline with Tween-80
[13] = dose: 240.0 mg/kg/injection, schedule: Q01DX005 (ip), vehicle: saline with Tween-80
[14] = dose: 60.0 mg/kg/injection, schedule: Q01DX005 (ip), vehicle: Klucel (hydroxypropylcellulose) (HPC)
[15] = dose: 120.0 mg/kg/injection, schedule: Q01DX005 (ip), vehicle: Klucel (hydroxypropylcellulose) (HPC)
[16] = dose: 50.0 mg/kg/injection, schedule: Q01DX005 (ip), vehicle: saline
[17] = dose: 100.0 mg/kg/injection, schedule: Q01DX005 (ip), vehicle: saline
[18] = dose: 200.0 mg/kg/injection, schedule: Q01DX005 (ip), vehicle: saline
[19] = dose: 12.5 mg/kg/injection, schedule: Q04DX003 (ip), vehicle: saline
[20] = dose: 25.0 mg/kg/injection, schedule: Q04DX003 (ip), vehicle: saline
[21] = dose: 200.0 mg/kg/injection, schedule: Q04DX003 (ip), vehicle: saline
[22] = dose: 400.0 mg/kg/injection, schedule: Q04DX003 (ip), vehicle: saline

Measured: T/C

CC(C)=NOCc1ccccc1
inactive: dose: 2.5 mg/kg/injection, schedule: Q01DX009 (ip), vehicle: Klucel (hydroxypropylcellulose) (HPC) 119 % of control | dose: 5.0 mg/kg/injection, schedule: Q01DX009 (ip), vehicle: Klucel (hydroxypropylcellulose) (HPC) 120 % of control | dose: 10.0 mg/kg/injection, schedule: Q01DX009 (ip), vehicle: Klucel (hydroxypropylcellulose) (HPC) 117 % of control | dose: 50.0 mg/kg/injection, schedule: Q01DX009 (ip), vehicle: Klucel (hydroxypropylcellulose) (HPC) 94 % of control | [1] 98 % of control

Nc1ccc2[se]nc3c2c1C(=O)c1ccccc1-3
inactive: [2] 98 % of control | [3] 98 % of control | [4] 101 % of control

CC1CC2(CC(COc3ccccc3C(N)=O)OC2=O)C(=O)O1 (centres undefined)
inactive: [5] 100 % of control | [6] 100 % of control | [7] 97 % of control

Oc1ccccc1/C=N/C(/N=C/c1ccccc1O)c1ccccc1O
inactive: [8] 100 % of control | [9] 101 % of control | [10] 100 % of control

COc1ccc2[nH]c(=O)c(C(C)=O)c(O)c2c1
inactive: [5] 103 % of control | [6] 105 % of control | [7] 101 % of control

CC1COCCOC(=O)c2cccc(n2)C(=O)OCCOCC(C)O1 (centres undefined)
inactive: dose: 100.0 mg/kg/injection, schedule: Q04DX003 (ip), vehicle: Klucel (hydroxypropylcellulose) (HPC) 102 % of control | dose: 200.0 mg/kg/injection, schedule: Q04DX003 (ip), vehicle: Klucel (hydroxypropylcellulose) (HPC) 95 % of control | dose: 400.0 mg/kg/injection, schedule: Q04DX003 (ip), vehicle: Klucel (hydroxypropylcellulose) (HPC) 102 % of control

O=C1CCC(Cc2ccc(C(F)(F)F)cc2)C(=O)N1 (centres undefined)
inactive: [11] 102 % of control | [12] 95 % of control | [13] 98 % of control

C/C(=N\NC(=S)N1CC(C)OC(C)C1)c1ncccn1 (centres undefined)
inactive: dose: 7.5 mg/kg/injection, schedule: Q01DX005 (ip), vehicle: saline with Tween-80 104 % of control | dose: 15.0 mg/kg/injection, schedule: Q01DX005 (ip), vehicle: saline with Tween-80 98 % of control

COC(=O)c1nc(N)nc(C(=O)OC)c1C(=O)c1ccc2ccccc2c1
inactive: [14] 102 % of control | [15] 101 % of control

C=C1C(=O)OC2/C=C(\C)C3OC3/C=C(/C(=O)OC)C(O)C(OC(=O)C3(C)OC3C)C12 (centres undefined)
inactive: dose: 3.0 mg/kg/injection, schedule: Q01DX009 (ip), vehicle: Klucel (hydroxypropylcellulose) (HPC) 115 % of control and 123 % of control | dose: 6.0 mg/kg/injection, schedule: Q01DX009 (ip), vehicle: Klucel (hydroxypropylcellulose) (HPC) 120 % of control and 123 % of control | dose: 12.0 mg/kg/injection, schedule: Q01DX009 (ip), vehicle: Klucel (hydroxypropylcellulose) (HPC) 119 % of control | dose: 24.0 mg/kg/injection, schedule: Q01DX009 (ip), vehicle: Klucel (hydroxypropylcellulose) (HPC) 94 % of control

Clc1cc2c(nn1)-c1ccccc1C2
inactive: [5] 100 % of control | [6] 105 % of control | [7] 100 % of control

CC(=O)C1OC1c1ccccn1 (centres undefined)
inactive: dose: 25.0 mg/kg/injection, schedule: Q01DX005 (ip), vehicle: saline 102 % of control | dose: 25.0 mg/kg/injection, schedule: Q01DX005 (ip), vehicle: suspension in saline 103 % of control | [16] 102 % of control | dose: 50.0 mg/kg/injection, schedule: Q01DX005 (ip), vehicle: suspension in saline 100 % of control | [17] 104 % of control | dose: 100.0 mg/kg/injection, schedule: Q01DX005 (ip), vehicle: suspension in saline 110 % of control | [18] 102 % of control | dose: 200.0 mg/kg/injection, schedule: Q01DX005 (ip), vehicle: suspension in saline 100 % of control

CCOCCN1CCN(CCCN2c3ccccc3Sc3ccc(C(F)(F)F)cc32)CC1
inactive: dose: 6.25 mg/kg/injection, schedule: Q04DX003 (ip), vehicle: saline 104 % of control and 88 % of control | [19] 110 % of control and 118 % of control | [20] 115 % of control

CN1CC[C@H]([C@@H](O)c2ccccc2)C1=O
inactive: [16] 102 % of control | [17] 102 % of control | [18] 107 % of control

CO/N=C(\N)NC(=O)Cc1c(Cl)cccc1Cl
inactive: [2] 94 % of control | [3] 98 % of control | [4] 100 % of control and 101 % of control | dose: 50.0 mg/kg/injection, schedule: Q01DX005 (ip), vehicle: Klucel (hydroxypropylcellulose) (HPC) 103 % of control and 90 % of control | dose: 100.0 mg/kg/injection, schedule: Q01DX005 (ip), vehicle: Klucel (hydroxypropylcellulose) (HPC) 100 % of control

O=C(Nc1ccccc1)Nc1nccs1
inactive: [8] 92 % of control | [9] 96 % of control | [10] 93 % of control

O=C1OC(C2OC(=O)C(=O)C2C(=O)c2cccc([N+](=O)[O-])c2)C(C(=O)c2cccc([N+](=O)[O-])c2)C1=O (centres undefined)
inactive: [11] 100 % of control | [12] 105 % of control | [13] 100 % of control

CCN(C)c1cc(=O)c2ccc3ccccc3c2o1
inactive: [8] 101 % of control | [9] 105 % of control

NNC(=O)CC(N)=O
inactive: [19] 95 % of control | [20] 95 % of control | dose: 50.0 mg/kg/injection, schedule: Q04DX003 (ip), vehicle: saline 96 % of control | [21] 104 % of control | [22] 100 % of control

Nc1nnc2cccc(Cl)n12
inactive: dose: 100.0 mg/kg/injection, schedule: Q01DX001 (ip), vehicle: Klucel (hydroxypropylcellulose) (HPC) 98 % of control | dose: 200.0 mg/kg/injection, schedule: Q01DX001 (ip), vehicle: Klucel (hydroxypropylcellulose) (HPC) 96 % of control | dose: 400.0 mg/kg/injection, schedule: Q01DX001 (ip), vehicle: Klucel (hydroxypropylcellulose) (HPC) 99 % of control

Cc1ccc2nc(NC(=S)S)sc2c1
inactive: dose: 6.25 mg/kg/injection, schedule: Q01DX009 (ip), vehicle: Klucel (hydroxypropylcellulose) (HPC) 100 % of control | dose: 12.5 mg/kg/injection, schedule: Q01DX009 (ip), vehicle: Klucel (hydroxypropylcellulose) (HPC) 107 % of control | dose: 25.0 mg/kg/injection, schedule: Q01DX009 (ip), vehicle: Klucel (hydroxypropylcellulose) (HPC) 113 % of control | [1] 87 % of control

OC(CNC1CCCCC1)CO/N=C1\CCSc2c(Cl)cccc21 (centres undefined)
inactive: dose: 3.12 mg/kg/injection, schedule: Q04DX002 (ip), vehicle: Klucel (hydroxypropylcellulose) (HPC) 94 % of control | dose: 6.25 mg/kg/injection, schedule: Q04DX002 (ip), vehicle: Klucel (hydroxypropylcellulose) (HPC) 99 % of control | dose: 12.5 mg/kg/injection, schedule: Q04DX002 (ip), vehicle: Klucel (hydroxypropylcellulose) (HPC) 103 % of control | dose: 25.0 mg/kg/injection, schedule: Q04DX002 (ip), vehicle: Klucel (hydroxypropylcellulose) (HPC) 100 % of control | dose: 100.0 mg/kg/injection, schedule: Q04DX002 (ip), vehicle: Klucel (hydroxypropylcellulose) (HPC) 96 % of control | dose: 200.0 mg/kg/injection, schedule: Q04DX002 (ip), vehicle: Klucel (hydroxypropylcellulose) (HPC) 87 % of control

NC(CCC(N)C(=O)c1ccccc1)C(=O)c1ccccc1 (centres undefined)
inactive: [11] 98 % of control | [12] 101 % of control | [13] 93 % of control

CS(=O)(=O)/C=C/C([N+](=O)[O-])[N+](=O)[O-]
inactive: dose: 100.0 mg/kg/injection, schedule: Q04DX003 (ip), vehicle: saline 109 % of control | [21] 104 % of control | [22] 92 % of control

C1=CC2C=CC1C2c1ccccc1 (centres undefined)
inactive: dose: 50.0 mg/kg/injection, schedule: Q01DX009 (ip), vehicle: saline 108 % of control and 86 % of control | dose: 100.0 mg/kg/injection, schedule: Q01DX009 (ip), vehicle: saline 105 % of control and 111 % of control | dose: 200.0 mg/kg/injection, schedule: Q01DX009 (ip), vehicle: saline 116 % of control and 98 % of control

CS(=O)(=O)Nc1nc2ccccc2c(=O)o1
inactive: [14] 107 % of control | [15] 102 % of control | dose: 240.0 mg/kg/injection, schedule: Q01DX005 (ip), vehicle: Klucel (hydroxypropylcellulose) (HPC) 99 % of control

CC(N)C(=O)NC(C)P(=O)(O)O (centres undefined)
inactive: [8] 102 % of control | [9] 101 % of control | [10] 101 % of control
